Assay: Effect on weight in a model of obesity induced by a hyperlipidic diet
Assay type: in vivo, mice
Settings: 40 mg/kg/day oral; for gain or loss of weight according to the initial weight, mean: high fat diet, Swiss male mice
Experimental: 1. Effect of OBE2001 on Weight
The aim of this first in vivo experiment is to determine the anti-obesity effect of OBE2001 in a model of obesity induced by a hyperlipidic diet in mice.
OBE2001 (Acetyl-Ala-Phe-BoroArg) was provided under salt form (molecular weight of 568.3 g/mol). Swiss male mice, 4 weeks of age, were divided into 2 groups of 10 animals each, receiving the following:
Administration of OBE2001 was carried out as a solution in water. Both OBE2001 or vehicle (water used a negative control) were administrated to the animals daily by the oral route in an administration of 5 ml/kg body weight.
Concerning the feeding of the animals, before the experiments (acclimation period), normal diet (reference No. 824050 SDSIDIETEX food) was available ad libitum during the acclimation period. 7 days before the beginning of the study, a hypercaloric High Fat diet ([…], 4.73 Kcal/g; reference 824053 SDSIDIETEX) was given to groups 1 and 2.
Animals were weighed daily from at D-8 (8 days before the beginning of the experiment) then from D-5 to the end of the study. From D1 (first day of the experiment), food was given ad libitum.

## CC(=O)N[C@@H](C)C(=O)N[C@@H](Cc1ccccc1)C(=O)N[C@@H](CCCNC(=N)N)B1OC2C[C@@H]3C[C@@H](C3(C)C)[C@]2(C)O1 (some centres unmarked) [OBE2001]
Significant from day 4, highly significant from day 8
  weight of treated mice versus control group: significantly lower
D1
  gain or loss of weight according to the initial weight, mean: -2.7 g
D2
  gain or loss of weight according to the initial weight, mean: -1.2 g
D3
  gain or loss of weight according to the initial weight, mean: -0.8 g
D4
  gain or loss of weight according to the initial weight, mean: 0.2 g
D5
  gain or loss of weight according to the initial weight, mean: 0.7 g
D6
  gain or loss of weight according to the initial weight, mean: 1.0 g
D7
  gain or loss of weight according to the initial weight, mean: 0.9 g
D8
  gain or loss of weight according to the initial weight, mean: 1.3 g
D9
  gain or loss of weight according to the initial weight, mean: 1.0 g
D10
  gain or loss of weight according to the initial weight, mean: 1.1 g
D11
  gain or loss of weight according to the initial weight, mean: 0.5 g
D12
  gain or loss of weight according to the initial weight, mean: 1.8 g
D13
  gain or loss of weight according to the initial weight, mean: 2.0 g
